# The source made the active and inactive calls. No rule for the calls is given here.
# Target: glutathione S-transferase (GST-GSH binding)
# Test: GST–glutathione interaction disruption – biochemical, multiplex beads, flow cytometry, HPSMTB buffer, profiling panel (AID 1324);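 also: glutathione beads loaded with GST-green fluorescent protein and no fluorescent Bim peptide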
# Conditions: multiplex bead flow cytometry, MCF
row,SMILES,EC50
1,CCN(CC)c1ccc(NC2=C(Cl)C(=O)c3ccccc3C2=O)cc1,inactive
2,O=C(Nc1ccc2nc(-c3ccco3)c(-c3ccco3)nc2c1)NC1CC1,8.3 µM
3,O=C1c2ccccc2-c2onc3ccc(NCc4ccco4)c1c23,inactive

# Same assay, conditions: multiplex bead flow cytometry, MCF, active compounds read high, concentration not given here
row,SMILES,percent span inhibition
1,CC(C)(C)C(=O)NC(NC(=S)Nc1ccc(S(N)(=O)=O)cc1)C(Cl)(Cl)Cl (stereo not given),inactive
2,O=C(CSc1nnc(Cc2ccccc2)o1)NCc1ccco1,inactive
3,CNC(CC(=O)c1ccc([N+](=O)[O-])cc1)C(Cl)(Cl)Cl (stereo not given),inactive
4,Cc1cc(C)nc(/N=c2/ssnc2Cl)c1,inactive
5,CC(=O)OCCCNc1cc(Sc2nc3ccccc3s2)c2nonc2c1[N+](=O)[O-],inactive
6,COc1cc(N=c2ssnc2Cl)c(OC)cc1Cl,inactive
7,Cc1cccc(C(=O)N2CCC(c3nc(-c4ccc(S(=O)(=O)N5CCOCC5)cc4)no3)CC2)c1,inactive
8,Cc1nn(-c2ccc(Cl)cc2)c(Cl)c1/C=C(\C#N)C(N)=O,inactive
9,CCNCc1cc(Br)c(OCC(=O)Nc2ccccc2)c(OC)c1,inactive
10,CC(=O)Nc1ccc2nc(CN3CCN(CC(C)C)C(CCO)C3)ccc2c1 (stereo not given),inactive
11,COC(=O)Cc1ccc(NC(=S)N2CCN(c3cccc(O)c3)CC2)cc1,inactive
12,OCCC1CN(Cc2ccc3ncccc3c2)CCN1Cc1ccccc1 (stereo not given),inactive
13,Cc1cccc(-n2c(-c3ccncc3)n[nH]c2=S)c1,inactive
14,CN(C)c1ccc(C=C2C(=O)NC(=O)NC2=O)cc1[N+](=O)[O-],inactive
15,Cc1ccc(-c2cc(-c3ccccc3Cl)c(C#N)c(N)n2)o1,inactive
16,CCOC(=O)CSC1=NC(=O)/C(=C\c2ccc(OC(C)=O)cc2)S1,inactive
17,COc1ccc(-c2csc(NC(=O)/C(N=Nc3ccccc3)=C(\C)O)n2)cc1,inactive
18,O=C(NCCCN1CCN(CCCNC(=O)c2cc([N+](=O)[O-])ccc2Cl)CC1)c1cc([N+](=O)[O-])ccc1Cl,inactive
19,c1ccc(Nc2nc(-c3ccncc3)cs2)cc1,inactive
20,CC1N(C)c2cccc3cccc(c23)N1C,inactive
21,O=C(O)c1ccccc1NSc1ccccc1[N+](=O)[O-],inactive
22,NC(=O)c1c(N)sc2c1CCCCC2,inactive
23,Cc1ccc(-n2[nH]c(C)c(/C=N/Nc3ccc([N+](=O)[O-])cc3[N+](=O)[O-])c2=O)cc1C,inactive

row,SMILES,percent span inhibition
1,O=C1/C(=C/c2cccs2)Sc2ccccc21,inactive
2,CCOc1ccccc1NC(=O)CSc1nnc2ccc(-c3cccnc3)nn12,inactive
3,CCc1nn2cc(C(=O)c3cc(C)ccc3O)cnc2c1-c1ccc(F)cc1,inactive
4,Cc1[nH]nc(SCC(=O)NCc2ccc(F)cc2)c1[N+](=O)[O-],inactive
5,Cn1c(N)c(C(=O)COC(=O)c2cncc(Br)c2)c(=O)n(C)c1=O,inactive
6,CCOC(=O)N1CCC(c2cc(=O)n(-c3ccccc3)[nH]2)CC1,inactive
7,CCCC(=O)OCCNc1cc(Sc2nccn2C)c2nonc2c1[N+](=O)[O-],inactive
8,Cc1ccc(-c2ccc(/C=C/C(=O)c3ccccc3)o2)cc1,inactive
9,CCOc1cc(/C=N/NC(N)=O)ccc1OCC(=O)Nc1ccc(C)c(C)c1,inactive
10,Cc1ccc2c(c1)C1CN(C)CCC1N2C(=O)Nc1cccc(Cl)c1 (stereo not given),inactive
11,Cc1cc2n(c1)CCn1c(C)ccc1-2,inactive
12,CC(=O)Nc1ccc(-n2cc(-c3ccccc3)[nH]c2=S)cc1,inactive
13,CCN(CC)C(=O)COC(=O)c1cc(-c2ccco2)nc2ccccc12,inactive
14,CCN1/C(=C\c2ccc3cc(C)ccc3[n+]2CC)Sc2cc(C)c(C)cc21,inactive
15,COc1ccc(CC(=O)Nc2ccccc2Oc2ccccc2)cc1,inactive
16,CC(NCc1ccc(-c2ccccc2)cc1)C(O)c1ccccc1 (stereo not given),inactive
17,O=C(O)c1cccc(NC2=C(Cl)C(=O)c3ccccc3C2=O)c1,inactive
18,CCN(CC)c1ccc(NC(=O)c2ccccc2F)cc1S(=O)(=O)Nc1ccccc1OC,inactive
19,COc1ccc2oc(-c3ccccc3)c(C(=O)N3CCOCC3)c2c1,inactive
20,COc1ccc(C2=Nc3cccc4cccc(c34)N2)cc1,inactive
21,O=C(NC1=C(Nc2ccc(F)cc2)C(=O)c2ccccc2C1=O)c1ccc(Cl)cc1,inactive
22,O=C(c1cnccn1)N(Cc1cccs1)C1(C(=O)NC2CCCCC2)CCCCC1,inactive
23,CN1CCS/C1=C/C=C1/SC(=S)N(Cc2ccccc2)C1=O,inactive

row,SMILES,percent span inhibition
1,O=C(COc1ccc(Br)cc1CNC1CCCCC1)NCCc1ccccc1,inactive
2,O=C1CSc2ccc(C(=O)Nc3cccc(S(=O)(=O)Nc4ccc(Br)cc4)c3)cc2N1,inactive
3,O=[N+]([O-])c1ccc(N2CCN(c3ccc(O)cc3)CC2)c(Cl)c1,inactive
4,O=C1C(Cl)=C(N2CCN(c3ccccc3[N+](=O)[O-])CC2)C(=O)c2ccccc21,inactive
5,Cn1c(=O)c2c(nc(NCCO)n2CCc2ccccc2)n(C)c1=O,inactive
6,Cc1cc(N2CCN(C)CC2)nc2ccc(NC(=S)N3CCN(c4cccc(Cl)c4)CC3)cc12,inactive
7,Cc1ccc(/C=C/C(=O)Nc2ccc([N+](=O)[O-])c(NC(=O)/C=C/c3ccc(C)o3)c2)o1,inactive
8,COC(=O)c1ccc(C)c(NC(=O)CCNC(=O)c2ccc([N+](=O)[O-])cc2)c1,inactive
9,CCOc1cccc(CNc2ccc(O)cc2)c1OCc1ccc(Cl)cc1,inactive
10,Cc1ccc(SCCC(=O)Nc2ccc(Br)c(C)c2)cc1,inactive
11,CNC(=O)CC1C(=O)N(Cc2ccccc2)C(=S)N1NC(=O)c1cccc(F)c1 (stereo not given),inactive
12,COC(=O)c1c(C(=O)OC)c2cccc3cc(-c4ccccc4)c4ccc1c4n32,inactive
13,CCOc1ccc(C2=Nn3c(nnc3-c3ccco3)SC2)cc1,inactive
14,O=[N+]([O-])c1c(NCCO)cc(Sc2nc3ccccc3s2)c2nonc12,inactive
15,COc1ccc(CCNC(=O)c2ccc3nc(-c4ccco4)c(-c4ccco4)nc3c2)cc1OC,inactive
16,O=C(C1CCC(Cn2c(=S)[nH]c3ccccc3c2=O)CC1)N1CCN(c2ccccn2)CC1 (stereo not given),inactive
17,Cc1ccccc1-n1c(SCc2cccc(F)c2)nc2[nH]ncc2c1=O,inactive
18,O=C(O)c1ccc(NS(=O)(=O)c2ccc3c(c2)C(=O)c2ccccc2C3=O)cc1,inactive
19,CCCCCCn1nc(C(=O)Nc2nc3c(s2)CCCC3)c2ccccc2c1=O,inactive
20,Cc1ccccc1OCC(=O)N/N=C/c1ccccn1,inactive
21,COC(=O)c1ccc(-n2nnnc2SCC(=O)Nc2cc(OC)ccc2OC)cc1,inactive

# Source: PubChem BioAssay AID1324 (NMMLSC, 2008)
